{
  "source": "ChEMBL document CHEMBL4261580",
  "about": "“Novel antitumor compound optimized from natural saponin Albiziabioside A induced caspase-dependent apoptosis and ferroptosis as a p53 activator through the mitochondrial pathway” (Eur J Med Chem, 2018)",
  "key": {"HaCaT": {"system": "HaCaT", "assay": "Antiproliferative activity against human HaCaT cells after 72 hrs by MTT assay", "type": "cell-based"}, "BEAS-2B": {"system": "BEAS-2B", "assay": "Antiproliferative activity against human BEAS2B cells after 72 hrs by MTT assay", "type": "functional, cell-based"}, "HCT-116 [1]": {"system": "HCT-116", "assay": "Antiproliferative activity against human HCT116 cells after 72 hrs by MTT assay", "type": "functional, cell-based", "settings": "HCT-116, 72 h"}, "L02": {"system": "L02", "assay": "Antiproliferative activity against human LO2 cells after 72 hrs by MTT assay", "type": "cell-based", "settings": "L02, 72 h"}, "[2]": {"assay": "Antiproliferative activity against human CCD-841 cells after 72 hrs by MTT assay", "type": "cell-based", "settings": "CCD-841, 72 h"}, "[3]": {"assay": "Antiproliferative activity against human HBMEC cells after 72 hrs by MTT assay", "type": "cell-based"}, "MGC-803": {"system": "MGC-803", "assay": "Antiproliferative activity against human MGC803 cells after 72 hrs by MTT assay", "type": "functional, cell-based", "settings": "MGC-803, 72 h"}, "MCF7": {"system": "MCF7", "assay": "Antiproliferative activity against human MCF7 cells after 72 hrs by MTT assay", "type": "functional, cell-based", "settings": "MCF7, 72 h"}, "A549": {"system": "A549", "assay": "Antiproliferative activity against human A549 cells after 72 hrs by MTT assay", "type": "functional, cell-based", "settings": "A549, 72 h"}, "HepG2": {"system": "HepG2", "assay": "Antiproliferative activity against human HepG2 cells after 72 hrs by MTT assay", "type": "functional, cell-based", "settings": "HepG2, 72 h"}, "HCT-116 [4]": {"system": "HCT-116", "assay": "Antitumor activity against human HCT116 cells xenografted in BALB/c nude mouse assessed as decrease in tumor weight at 20 mg/kg, iv administered once per day for 14 days and measured every 2 days", "type": "functional"}, "HCT-116 [5]": {"system": "HCT-116", "assay": "Antitumor activity against human HCT116 cells xenografted in BALB/c nude mouse assessed as decrease in tumor size at 20 mg/kg, iv administered once per day for 14 days and measured every 2 days", "type": "functional"}},
  "note": "Calls of active or inactive are those of the source. No cut-off for these calls is given here.",
  "data": [
    {"compound": "CC(=O)N[C@H]1[C@H](O[C@H]2CC[C@]3(C)[C@H]4CC=C5[C@@H]6CC(C)(C)CC[C@]6(C(=O)OCc6cn(-c7cccc(Br)c7)nn6)CC[C@@]5(C)[C@]4(C)CC[C@H]3C2(C)C)O[C@H](CO[C@@H]2OC[C@H](O)[C@H](O)[C@@H]2O)[C@@H](O)[C@@H]1O", "values": [
      {"measurement": "IC50", "setting": "HaCaT", "result": 39.3, "unit": "µM"},
      {"measurement": "IC50", "setting": "BEAS-2B", "result": 11.3, "unit": "µM"},
      {"measurement": "IC50", "setting": "HCT-116 [1]", "result": 9.93, "unit": "µM"},
      {"measurement": "IC50", "setting": "L02", "result": 35.4, "unit": "µM"},
      {"measurement": "IC50", "setting": "[2]", "result": 18.2, "unit": "µM"},
      {"measurement": "IC50", "setting": "[3]", "result": 20.4, "unit": "µM"},
      {"measurement": "IC50", "setting": "MGC-803", "result": 7.7, "unit": "µM"},
      {"measurement": "IC50", "setting": "MCF7", "result": 15, "unit": "µM"},
      {"measurement": "IC50", "setting": "A549", "result": 10.2, "unit": "µM"},
      {"measurement": "IC50", "setting": "HepG2", "result": 5.51, "unit": "µM"}
    ]},
    {"compound": "CC(=O)N[C@H]1[C@H](O[C@H]2CC[C@]3(C)[C@H]4CC=C5[C@@H]6CC(C)(C)CC[C@]6(C(=O)OCc6cn(-c7cccc(I)c7)nn6)CC[C@@]5(C)[C@]4(C)CC[C@H]3C2(C)C)O[C@H](CO[C@@H]2OC[C@H](O)[C@H](O)[C@@H]2O)[C@@H](O)[C@@H]1O", "values": [
      {"measurement": "IC50", "setting": "HaCaT", "result": 29.5, "unit": "µM"},
      {"measurement": "IC50", "setting": "BEAS-2B", "result": 14.6, "unit": "µM"},
      {"measurement": "IC50", "setting": "HCT-116 [1]", "result": 12.2, "unit": "µM"},
      {"measurement": "IC50", "setting": "L02", "result": 27.4, "unit": "µM"},
      {"measurement": "IC50", "setting": "[2]", "result": 36.5, "unit": "µM"},
      {"measurement": "IC50", "setting": "[3]", "result": 18.7, "unit": "µM"},
      {"measurement": "IC50", "setting": "MGC-803", "result": 10.1, "unit": "µM"},
      {"measurement": "IC50", "setting": "MCF7", "result": 10.8, "unit": "µM"},
      {"measurement": "IC50", "setting": "A549", "result": 9.08, "unit": "µM"},
      {"measurement": "IC50", "setting": "HepG2", "result": 5.39, "unit": "µM"}
    ]},
    {"compound": "CC(=O)N[C@H]1[C@H](O[C@H]2CC[C@]3(C)[C@H]4CC=C5[C@@H]6CC(C)(C)CC[C@]6(C(=O)O)CC[C@@]5(C)[C@]4(C)CC[C@H]3C2(C)C)O[C@H](CO[C@@H]2OC[C@H](O)[C@H](O)[C@@H]2O)[C@@H](O)[C@@H]1O", "values": [
      {"measurement": "Activity", "setting": "HCT-116 [4]", "result": "Active"},
      {"measurement": "IC50", "setting": "HCT-116 [1]", "result": 16, "unit": "µM"},
      {"measurement": "Activity", "setting": "HCT-116 [5]", "result": "Active"},
      {"measurement": "IC50", "setting": "MGC-803", "result": 20.8, "unit": "µM"},
      {"measurement": "IC50", "setting": "MCF7", "result": 21.9, "unit": "µM"},
      {"measurement": "IC50", "setting": "A549", "result": 17.6, "unit": "µM"},
      {"measurement": "IC50", "setting": "HepG2", "result": 11.4, "unit": "µM"}
    ]}
  ]
}
